From patent US12077503B2, “Substituted cyclic amides and their use as herbicides” (FMC CORPORATION, priority 2015, dated 2024)

Legend:
Assay type in all cases: in vivo
[1] = system: barnyardgrass (Echinochloa crus-galli); assay: Test A preemergence; settings: for Plant response rating, Barnyardgrass: 125 g ai/ha, preemergence, 0 to 100 scale (0 no effect, 100 complete control); for Barnyardgrass plant response rating (0 to 100 scale, 0 is no effect, 100 is complete control): Preemergence, 500 g ai/ha, visual injury approx. 10 d
In short: (§1)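 Treatment is preemergence as a directed soil spray after planting, or postemergence at the one- to two-leaf stage, with test chemical in a non-phytotoxic solvent mixture plus surfactant. Plants stay in the greenhouse about 10 d before visual injury scoring on a 0 to 100 scale versus untreated controls.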

[2] = system: giant foxtail (Setaria faberii); assay: Test A preemergence; settings: for Plant response rating, Foxtail, Giant: 125 g ai/ha, preemergence, 0 to 100 scale (0 no effect, 100 complete control); for Foxtail, Giant plant response rating (0 to 100 scale, 0 is no effect, 100 is complete control): Preemergence, 500 g ai/ha, visual injury approx. 10 d
In short: as §1

[3] = system: ragweed (common ragweed, Ambrosia elatior); assay: Test A preemergence; settings: for Plant response rating, Ragweed: 125 g ai/ha, preemergence, 0 to 100 scale (0 no effect, 100 complete control); for Ragweed plant response rating (0 to 100 scale, 0 is no effect, 100 is complete control): Preemergence, 500 g ai/ha, visual injury approx. 10 d
In short: as §1

[4] = system: ryegrass, Italian (Italian ryegrass, Lolium multiflorum); assay: Test A preemergence; settings: for Plant response rating, Ryegrass, Italian: 125 g ai/ha, preemergence, 0 to 100 scale (0 no effect, 100 complete control); for Ryegrass, Italian plant response rating (0 to 100 scale, 0 is no effect, 100 is complete control): Preemergence, 500 g ai/ha, visual injury approx. 10 d
In short: as §1

Kochia (Kochia scoparia) [5] = assay: Test A preemergence; settings: for Plant response rating, Kochia: 125 g ai/ha, preemergence, 0 to 100 scale (0 no effect, 100 complete control); for Kochia plant response rating (0 to 100 scale, 0 is no effect, 100 is complete control): Preemergence, 500 g ai/ha, visual injury approx. 10 d
In short: as §1

[6] = system: pigweed (Amaranthus retroflexus); assay: Test A preemergence; settings: for Plant response rating, Pigweed: 125 g ai/ha, preemergence, 0 to 100 scale (0 no effect, 100 complete control); for Pigweed plant response rating (0 to 100 scale, 0 is no effect, 100 is complete control): Preemergence, 500 g ai/ha, visual injury approx. 10 d
[7] = system: barnyardgrass (Echinochloa crus-galli); assay: Test B flooded paddy test; settings: Flood, 250 g ai/ha; 0 to 100 scale where 0 is no effect and 100 is complete control; 13 to 15 d
In short: (§2)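 Response scored visually against untreated controls, 0 = no effect and 100 = complete control, 13–15 d after treatment in the greenhouse. Compounds added to paddy water held 3 cm above soil surface. Treatment given at 2-leaf stage.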

[8] = system: sedge, umbrella (small-flower umbrella sedge, Cyperus difformis); assay: Test B flooded paddy test; settings: Flood, 250 g ai/ha; 0 to 100 scale where 0 is no effect and 100 is complete control; 13 to 15 d
In short: as §2

rice (Oryra sativa) = assay: Test B flooded paddy test; settings: Flood, 250 g ai/ha; 0 to 100 scale where 0 is no effect and 100 is complete control; 13 to 15 d
In short: as §2

[9] = system: ducksalad (Heteranthera limosa); assay: Test B flooded paddy test; settings: Flood, 250 g ai/ha; 0 to 100 scale where 0 is no effect and 100 is complete control; 13 to 15 d
In short: as §2

[10] = system: Galium (catchweed bedstraw, Galium aparine); assay: Test A postemergence; settings: postemergence; for Galium plant response rating: 125 g ai/ha, visual injury rating on 0 to 100 scale (0 no effect, 100 complete control), approx. 10 d; for Plant response rating, Galium: 500 g ai/ha, 0 to 100 scale, 0 no effect, 100 complete control
In short: as §1

[11] = system: blackgrass (Alopecurus myosuroides); assay: Test A postemergence; settings: postemergence; for Blackgrass plant response rating: 125 g ai/ha, visual injury rating on 0 to 100 scale (0 no effect, 100 complete control), approx. 10 d; for Plant response rating, Blackgrass: 500 g ai/ha, 0 to 100 scale, 0 no effect, 100 complete control
In short: as §1

[12] = system: barnyardgrass (Echinochloa crus-galli); assay: Test A postemergence; settings: postemergence; for Barnyardgrass plant response rating: 125 g ai/ha, visual injury rating on 0 to 100 scale (0 no effect, 100 complete control), approx. 10 d; for Plant response rating, Barnyardgrass: 500 g ai/ha, 0 to 100 scale, 0 no effect, 100 complete control
In short: as §1

[13] = system: giant foxtail (Setaria faberii); assay: Test A postemergence; settings: postemergence; for Foxtail, Giant plant response rating: 125 g ai/ha, visual injury rating on 0 to 100 scale (0 no effect, 100 complete control), approx. 10 d; for Plant response rating, Foxtail, Giant: 500 g ai/ha, 0 to 100 scale, 0 no effect, 100 complete control
In short: as §1

[14] = system: ragweed (common ragweed, Ambrosia elatior); assay: Test A postemergence; settings: postemergence; for Ragweed plant response rating: 125 g ai/ha, visual injury rating on 0 to 100 scale (0 no effect, 100 complete control), approx. 10 d; for Plant response rating, Ragweed: 500 g ai/ha, 0 to 100 scale, 0 no effect, 100 complete control
In short: as §1

[15] = system: ryegrass, Italian (Italian ryegrass, Lolium multiflorum); assay: Test A postemergence; settings: postemergence; for Ryegrass, Italian plant response rating: 125 g ai/ha, visual injury rating on 0 to 100 scale (0 no effect, 100 complete control), approx. 10 d; for Plant response rating, Ryegrass, Italian: 500 g ai/ha, 0 to 100 scale, 0 no effect, 100 complete control
In short: as §1

Kochia (Kochia scoparia) [16] = assay: Test A postemergence; settings: postemergence; for Kochia plant response rating: 125 g ai/ha, visual injury rating on 0 to 100 scale (0 no effect, 100 complete control), approx. 10 d; for Plant response rating, Kochia: 500 g ai/ha, 0 to 100 scale, 0 no effect, 100 complete control
In short: as §1

corn (Zea mays) = assay: Test A postemergence; settings: postemergence; for Corn plant response rating: 125 g ai/ha, visual injury rating on 0 to 100 scale (0 no effect, 100 complete control), approx. 10 d; for Plant response rating, Corn: 500 g ai/ha, 0 to 100 scale, 0 no effect, 100 complete control
In short: as §1

[17] = system: pigweed (Amaranthus retroflexus); assay: Test A postemergence; settings: postemergence; for Pigweed plant response rating: 125 g ai/ha, visual injury rating on 0 to 100 scale (0 no effect, 100 complete control), approx. 10 d; for Plant response rating, Pigweed: 500 g ai/ha, 0 to 100 scale, 0 no effect, 100 complete control
In short: as §1

[18] = system: wheat (Triticum aestivum); assay: Test A postemergence; settings: postemergence; for Wheat plant response rating: 125 g ai/ha, visual injury rating on 0 to 100 scale (0 no effect, 100 complete control), approx. 10 d; for Plant response rating, Wheat: 500 g ai/ha, 0 to 100 scale, 0 no effect, 100 complete control
In short: as §1

SMILES: CN1CC(c2ccc(F)cc2)C(C(=O)Nc2ccccc2S(C)(=O)=O)C1=O (stereo not drawn) [Compound 439]
- Plant response rating, Barnyardgrass [1]: 90
- Barnyardgrass plant response rating (0 to 100 scale, 0 is no effect, 100 is complete control) [1]: 90
- Plant response rating, Foxtail, Giant [2]: 90
- Foxtail, Giant plant response rating (0 to 100 scale, 0 is no effect, 100 is complete control) [2]: 100
- Plant response rating, Ragweed [3]: 0
- Ragweed plant response rating (0 to 100 scale, 0 is no effect, 100 is complete control) [3]: 60
- Plant response rating, Ryegrass, Italian [4]: 0
- Ryegrass, Italian plant response rating (0 to 100 scale, 0 is no effect, 100 is complete control) [4]: 50
- Plant response rating, Kochia (Kochia (Kochia scoparia) [5]): 70
- Kochia plant response rating (0 to 100 scale, 0 is no effect, 100 is complete control) (Kochia (Kochia scoparia) [5]): 70
- Plant response rating, Pigweed [6]: 50
- Pigweed plant response rating (0 to 100 scale, 0 is no effect, 100 is complete control) [6]: 80
- Plant response rating, Barnyardgrass [7]: 40
- Plant response rating, Sedge, Umbrella [8]: 0
- Plant response rating, Rice (rice (Oryra sativa)): 0
- Plant response rating, Ducksalad [9]: 100
- Galium plant response rating [10]: 40
- Plant response rating, Galium [10]: 50
- Blackgrass plant response rating [11]: 0
- Plant response rating, Blackgrass [11]: 60
- Barnyardgrass plant response rating [12]: 90
- Plant response rating, Barnyardgrass [12]: 90
- Foxtail, Giant plant response rating [13]: 90
- Plant response rating, Foxtail, Giant [13]: 90
- Ragweed plant response rating [14]: 0
- Plant response rating, Ragweed [14]: 20
- Ryegrass, Italian plant response rating [15]: 0
- Plant response rating, Ryegrass, Italian [15]: 30
- Kochia plant response rating (Kochia (Kochia scoparia) [16]): 30
- Plant response rating, Kochia (Kochia (Kochia scoparia) [16]): 70
- Corn plant response rating (corn (Zea mays)): 0
- Plant response rating, Corn (corn (Zea mays)): 20
- Pigweed plant response rating [17]: 40
- Plant response rating, Pigweed [17]: 50
- Wheat plant response rating [18]: 0
- Plant response rating, Wheat [18]: 40

SMILES: CN1CC(c2ccc3c(c2)OC(F)(F)O3)C(C(=O)Nc2ccc(F)cc2F)C1=O (stereo not drawn) [Compound 444]
- Plant response rating, Barnyardgrass [1]: 90
- Barnyardgrass plant response rating (0 to 100 scale, 0 is no effect, 100 is complete control) [1]: 90
- Plant response rating, Foxtail, Giant [2]: 90
- Foxtail, Giant plant response rating (0 to 100 scale, 0 is no effect, 100 is complete control) [2]: 90
- Plant response rating, Ragweed [3]: 50
- Ragweed plant response rating (0 to 100 scale, 0 is no effect, 100 is complete control) [3]: 80
- Plant response rating, Ryegrass, Italian [4]: 40
- Ryegrass, Italian plant response rating (0 to 100 scale, 0 is no effect, 100 is complete control) [4]: 90
- Plant response rating, Kochia (Kochia (Kochia scoparia) [5]): 60
- Kochia plant response rating (0 to 100 scale, 0 is no effect, 100 is complete control) (Kochia (Kochia scoparia) [5]): 80
- Plant response rating, Pigweed [6]: 80
- Pigweed plant response rating (0 to 100 scale, 0 is no effect, 100 is complete control) [6]: 80
- Plant response rating, Barnyardgrass [7]: 75
- Plant response rating, Sedge, Umbrella [8]: 0
- Plant response rating, Rice (rice (Oryra sativa)): 0
- Plant response rating, Ducksalad [9]: 100
- Galium plant response rating [10]: 60
- Plant response rating, Galium [10]: 70
- Blackgrass plant response rating [11]: 70
- Plant response rating, Blackgrass [11]: 60
- Barnyardgrass plant response rating [12]: 80
- Plant response rating, Barnyardgrass [12]: 90
- Foxtail, Giant plant response rating [13]: 80
- Plant response rating, Foxtail, Giant [13]: 80
- Ragweed plant response rating [14]: 20
- Plant response rating, Ragweed [14]: 40
- Ryegrass, Italian plant response rating [15]: 50
- Plant response rating, Ryegrass, Italian [15]: 80
- Kochia plant response rating (Kochia (Kochia scoparia) [16]): 40
- Plant response rating, Kochia (Kochia (Kochia scoparia) [16]): 80
- Corn plant response rating (corn (Zea mays)): 60
- Plant response rating, Corn (corn (Zea mays)): 70
- Pigweed plant response rating [17]: 50
- Plant response rating, Pigweed [17]: 80
- Wheat plant response rating [18]: 50
- Plant response rating, Wheat [18]: 50
